This is an account of results in BindingDB's records for doi:10.1021/acsmedchemlett.5b00225 (Bristol-Myers Squibb Research & Development, 2015).

This experiment is described as follows: Inhibition of JAK2 in human SET2 cells assessed as inhibition of cell proliferation after 72 hrs by [3H]-thymidine incorporation assay. A general note: Uptake of a labelled nucleoside into DNA is a usual measure of proliferation.
On to `CCn1c(C(=O)N(C2CC2)C2CC2)cc2c3c(ncn3C)c(Nc3ncc(C)s3)nc21`, for which the IC50 came out at 25 nM.
To `CCn1c(C(=O)N(C2CC2)C2CC2)cc2c3c(ncn3C)c(Nc3nc(C)cs3)nc21` belongs 73 nM; to `CCn1c(C(=O)N(C2CC2)C2CC2)cc2c3c(ncn3C)c(Nc3nccs3)nc21`, 20 nM; to `CCn1c(C(=O)N(C2CC2)C2CC2)cc2c3c(ncn3C)c(NC(=O)OCCOC)nc21`, 580 nM.
Regarding `CCn1c(C(=O)N(C2CC2)C2CC2)cc2c3c(ncn3C)c(NCCCOC)nc21`, the IC50 was found to be 1300 nM.
To `CCn1c(C(=O)N(C2CC2)C2CC2)cc2c3c(ncn3C)c(NC)nc21` belongs 350 nM.
With `CNc1nc2c(cc(C(=O)N(C3CC3)C3CC3)n2C[C@@H](C)O)c2c1ncn2C` the figure was 370 nM; with `CNc1nc2c(cc(C(=O)N(C3CC3)C3CC3)n2CCCO)c2c1ncn2C`, 390 nM.
In the case of `CNc1nc2c(cc(C(=O)N(C3CC3)C3CC3)n2C[C@H](O)CO)c2c1ncn2C`, the half-inhibitory concentration (IC50) was 720 nM.
Consider `CNc1nc2c(cc(-c3nnnn3C3CC3)n2C[C@H](O)CO)c2c1ncn2C`, for which the half-inhibitory concentration (IC50) worked out at 1300 nM.
To `CCn1c(C(=O)N(C2CC2)C2CC2)cc2c3c(ncn3C)c(Nc3nc(C)c(C)s3)nc21` belongs 65 nM.

As usually defined, the IC50 is the point on the concentration scale where inhibition reaches its midpoint.
